Assay results: patent US9637472B2, “Substituted 6,5-fused bicyclic heteroaryl compounds” (Epizyme, Inc., priority 2011, dated 2017)

Biological target: EZH2 (Homo sapiens (Human), UniProt Q15910)
Assay: PRC2 enzyme assay on peptide substrates
Format: biochemical
Conditions: PRC2 enzyme assays on peptide substrates; 4 nM enzyme, 30 min preincubation at 25° C.; read-out: EZH2 IC50
Text: General Materials. S-adenosylmethionine (SAM), S-adenosylhomocyteine (SAH), bicine, KCl, Tween20, dimethylsulfoxide (DMSO) and bovine skin gelatin (BSG) were purchased from Sigma-Aldrich at the highest level of purity possible. Dithiothreitol (DTT) was purchased from EMD. ^3H-SAM was purchased from American Radiolabeled Chemicals with a specific activity of 80 Ci/mmol. 384-well streptavidin Flashplates were purchased from PerkinElmer.
Substrates. […] The sequences are listed below.
Recombinant PRC2 Enzymes. Human PRC2 enzymes were purified as 4-component enzyme complexes co-expressed in Spodoptera frugiperda (sf9) cells using a baculovirus expression system. The subunits expressed were wild-type EZH2 (NM_004456) or EZH2 Y641F, N, H, S or C mutants generated from the wild-type EZH2 construct, EED (NM_003797), Suz12 (NM_015355) and RbAp48 (NM_005610). The EED subunit contained an N-terminal FLAG tag that was used to purify the entire 4-component complex from sf9 cell lysates.
General Procedure for PRC2 Enzyme Assays on Peptide Substrates. The assays were all performed in a buffer consisting of 20 mM bicine (pH=7.6), 0.5 mM DTT, 0.005% BSG and 0.002% Tween20, prepared on the day of use. […] DMSO (1 μL) was added to columns 11, 12, 23, 24, rows A-H for the maximum signal control, and SAH, a known product and inhibitor of PRC2 (1 μL) was added to columns 11, 12, 23, 24, rows I-P for the minimum signal control. A cocktail (40 μL) containing the wild-type PRC2 enzyme and H3K27me0 peptide or any of the Y641 mutant enzymes and H3K27me2 peptide was added by Multidrop Combi (Thermo). The compounds were allowed to incubate with PRC2 for 30 min at 25° C., then a cocktail (10 μL) containing a mixture of non-radioactive and ^3H-SAM was added to initiate the reaction (final volume=51 μL). […] The assays were stopped by the addition of non-radioactive SAM (10 μL) to a final concentration of 600 μM, which dilutes the ^3H-SAM to a level where its incorporation into the peptide substrate is no longer detectable. 50 μL of the reaction in the 384-well polypropylene plate was then transferred to a 384-well Flashplate and the biotinylated peptides were allowed to bind to the streptavidin surface for at least 1 h before being washed three times with 0.1% Tween20 in a Biotek ELx405 plate washer. The plates were then read in a PerkinElmer TopCount platereader to measure the quantity of ^3H-labeled peptide bound to the Flashplate surface, measured as disintegrations per minute (dpm) or alternatively, referred to as counts per minute (cpm).
Where dpm=disintegrations per minute, cmpd=signal in assay well, and min and max are the respective minimum and maximum signal controls.
Where top and bottom are the normally allowed to float, but may be fixed at 100 or 0 respectively in a 3-parameter fit. The Hill Coefficient normally allowed to float but may also be fixed at 1 in a 3-parameter fit. Y is the % inhibition and X is the compound concentration.

Chain of EZH2 (Q15910 other isoform, or with tags, fused parts or gaps): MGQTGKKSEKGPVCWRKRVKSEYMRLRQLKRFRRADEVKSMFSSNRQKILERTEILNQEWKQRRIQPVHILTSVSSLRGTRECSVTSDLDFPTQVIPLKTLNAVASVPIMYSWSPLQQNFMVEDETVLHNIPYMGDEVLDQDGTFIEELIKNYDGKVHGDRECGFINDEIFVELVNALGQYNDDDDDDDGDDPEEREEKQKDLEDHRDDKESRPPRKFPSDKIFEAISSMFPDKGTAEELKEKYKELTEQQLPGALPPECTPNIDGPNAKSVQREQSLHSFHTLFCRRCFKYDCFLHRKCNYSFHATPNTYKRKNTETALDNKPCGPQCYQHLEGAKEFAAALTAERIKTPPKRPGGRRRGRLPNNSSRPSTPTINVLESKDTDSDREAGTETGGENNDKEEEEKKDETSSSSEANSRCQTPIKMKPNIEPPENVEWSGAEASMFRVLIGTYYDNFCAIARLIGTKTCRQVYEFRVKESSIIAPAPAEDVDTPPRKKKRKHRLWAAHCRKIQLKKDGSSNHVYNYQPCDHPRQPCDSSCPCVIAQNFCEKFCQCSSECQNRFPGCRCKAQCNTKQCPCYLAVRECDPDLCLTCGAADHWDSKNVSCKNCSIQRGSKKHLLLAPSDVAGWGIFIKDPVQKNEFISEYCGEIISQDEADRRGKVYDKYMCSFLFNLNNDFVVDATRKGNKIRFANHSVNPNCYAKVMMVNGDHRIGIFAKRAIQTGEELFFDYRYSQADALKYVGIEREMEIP
Chain of EZH2 (O75530 whole entry partner): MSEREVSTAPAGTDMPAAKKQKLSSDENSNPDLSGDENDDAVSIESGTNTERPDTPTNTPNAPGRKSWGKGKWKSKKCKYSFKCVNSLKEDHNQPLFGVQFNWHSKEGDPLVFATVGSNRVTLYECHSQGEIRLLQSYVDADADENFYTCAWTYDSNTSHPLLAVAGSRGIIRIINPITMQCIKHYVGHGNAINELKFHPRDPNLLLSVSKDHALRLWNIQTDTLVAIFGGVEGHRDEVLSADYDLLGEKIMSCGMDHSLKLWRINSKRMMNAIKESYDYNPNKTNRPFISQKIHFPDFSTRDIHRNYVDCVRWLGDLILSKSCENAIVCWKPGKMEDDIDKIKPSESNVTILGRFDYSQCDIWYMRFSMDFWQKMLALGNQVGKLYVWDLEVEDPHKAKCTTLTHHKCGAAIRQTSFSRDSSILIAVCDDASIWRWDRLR
Chain of EZH2 (Q15022 whole entry partner): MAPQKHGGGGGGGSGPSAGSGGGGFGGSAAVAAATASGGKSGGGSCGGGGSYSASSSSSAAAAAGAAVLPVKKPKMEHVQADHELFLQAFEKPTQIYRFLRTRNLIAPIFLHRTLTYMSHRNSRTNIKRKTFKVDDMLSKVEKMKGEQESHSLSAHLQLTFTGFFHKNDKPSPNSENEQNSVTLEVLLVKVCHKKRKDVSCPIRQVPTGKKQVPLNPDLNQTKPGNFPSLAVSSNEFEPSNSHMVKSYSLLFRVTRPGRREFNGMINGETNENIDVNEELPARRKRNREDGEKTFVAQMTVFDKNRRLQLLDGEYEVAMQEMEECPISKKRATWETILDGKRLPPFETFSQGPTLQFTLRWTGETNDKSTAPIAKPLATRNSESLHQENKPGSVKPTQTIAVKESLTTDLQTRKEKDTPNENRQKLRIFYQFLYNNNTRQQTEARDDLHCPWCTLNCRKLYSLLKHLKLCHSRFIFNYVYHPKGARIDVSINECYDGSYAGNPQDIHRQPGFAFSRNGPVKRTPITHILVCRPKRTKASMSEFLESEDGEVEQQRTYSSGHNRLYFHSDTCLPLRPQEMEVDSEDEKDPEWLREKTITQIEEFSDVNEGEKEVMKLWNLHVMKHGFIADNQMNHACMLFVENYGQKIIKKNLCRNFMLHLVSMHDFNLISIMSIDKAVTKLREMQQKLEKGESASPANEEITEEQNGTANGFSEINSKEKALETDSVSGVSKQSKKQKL
Chain of EZH2 (Q09028 whole entry partner): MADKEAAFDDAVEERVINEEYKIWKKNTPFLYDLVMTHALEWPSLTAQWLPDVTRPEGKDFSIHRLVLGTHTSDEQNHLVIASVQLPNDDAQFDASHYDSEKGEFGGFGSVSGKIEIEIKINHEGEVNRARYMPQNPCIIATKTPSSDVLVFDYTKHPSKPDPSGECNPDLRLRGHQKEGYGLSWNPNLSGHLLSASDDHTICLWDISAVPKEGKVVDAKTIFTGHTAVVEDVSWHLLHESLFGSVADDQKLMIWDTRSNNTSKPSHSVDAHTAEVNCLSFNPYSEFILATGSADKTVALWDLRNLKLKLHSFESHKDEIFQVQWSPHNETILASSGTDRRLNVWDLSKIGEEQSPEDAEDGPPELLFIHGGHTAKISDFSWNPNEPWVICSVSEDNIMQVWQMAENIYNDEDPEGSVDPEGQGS

| Structure (SMILES) | IC50 [nM] |
| --- | --- |
| Cc1cc(C)c(CNC(=O)c2cc(CNCCO)cc3c2cnn3C2CCCC2)c(=O)[nH]1 [Compound D-77] | 1000 to 3000 |
| CNC(=O)c1cc(C(=O)NCc2c(C)cc(C)[nH]c2=O)c2cnn(C(C)C)c2n1 [Compound B-18, N4-((4,6-dimethyl-2-oxo-1,2-dihydropyridin-3-yl)methyl)-1-isopropyl-N6-methyl-1H-pyrazolo[3,4-b]pyridine-4,6-dicarboxamide] | 1000 to 3000 |
| Cc1cc(C)c(CNC(=O)c2cc(N(C)CC(O)CO)nc3c2cnn3C(C)C)c(=O)[nH]1 (centres unmarked) [Compound B-134] | 3000 to 10000 |
| Cc1cc(C)c(CNC(=O)c2cc(-c3ccc(CN(C)C)cc3)cc3c2cnn3C2CCN(C(=O)C(C)(C)C)CC2)c(=O)[nH]1 [Compound C-31] | < 300 |
| Cc1cc(C)c(CNC(=O)c2cc(C3=CCN(C(=O)CN(C)C)CC3)cc3c2cnn3C2CCCC2)c(=O)[nH]1 [Compound D-38] | < 300 |
| Cc1cc(C)c(CNC(=O)c2cc(Br)cc3c2cnn3C2CCN(C(=O)C3CCNCC3)CC2)c(=O)[nH]1 [Compound D-52] | < 300 |
| COCc1cc(C)[nH]c(=O)c1CNC(=O)c1cc(C2=CC(C)(C)NC(C)(C)C2)nc2c1cnn2C(C)C [Compound B-21, 1-isopropyl-N-((4-(methoxymethyl)-6-methyl-2-oxo-1,2-dihydropyridin-3-yl)methyl)-6-(2,2,6,6-tetramethyl-1,2,3,6-tetrahydropyridin-4-yl)-1H-pyrazolo[3,4-b]pyridine-4-carboxamide] | 300 to 1000 |
| Cc1cc(CN(C)C)c(CNC(=O)c2cccc3c2cnn3C2CCCC2)c(=O)[nH]1 [Compound D-81] | 3000 to 10000 |
| Cc1cc(C)c(CNC(=O)c2cc(-c3cccc(CNCCN4CCOCC4)c3)nc3c2cnn3C(C)C)c(=O)[nH]1 [Compound A-126] | 300 to 1000 |
| Cc1cc(C)c(CNC(=O)c2cc(C3=CC(C)(C)NC(C)(C)C3)nc3c2c(C)nn3C(C)C)c(=O)[nH]1 [Compound B-13, N-((4,6-dimethyl-2-oxo-1,2-dihydropyridin-3-yl)methyl)-1-isopropyl-3-methyl-6-(2,2,6,6-tetramethyl-1,2,3,6-tetrahydropyridin-4-yl)-1H-pyrazolo[3,4-b]pyridine-4-carboxamide] | 300 to 1000 |
| Cc1cc(C)c(CNC(=O)c2cc(C3CCN(C(=O)CO)CC3)nc3c2cnn3C(C)C)c(=O)[nH]1 [Compound B-85] | 300 to 1000 |
| Cc1cc(C)c(CNC(=O)c2cc(-c3cn[nH]c3)nc3c2cnn3C(C)C)c(=O)[nH]1 [Compound A-49] | 1000 to 3000 |
| Cc1cc(C)c(CNC(=O)c2cc(-c3cccc(CN(C)CCN)c3)nc3c2cnn3C(C)C)c(=O)[nH]1 [Compound A-34] | 300 to 1000 |
| Cc1cc(C)c(CNC(=O)c2cc(C3=CCN(C(=O)C4CCN(C)C4)CC3)nc3c2cnn3C(C)C)c(=O)[nH]1 (centres unmarked) [Compound B-31, N-((4,6-dimethyl-2-oxo-1,2-dihydropyridin-3-yl)methyl)-1-isopropyl-6-(1-(1-methylpyrrolidine-3-carbonyl)-1,2,3,6-tetrahydropyridin-4-yl)-1H-pyrazolo[3,4-b]pyridine-4-carboxamide] | < 300 |
| Cc1cc(CO)c(CNC(=O)c2cccc3c2cnn3C2CCCC2)c(=O)[nH]1 [Compound D-88] | 10000 to 50000 |
| Cc1cc(C)c(CNC(=O)c2cc(C3=CCNCC3)cc3c2cnn3C2CCCC2)c(=O)[nH]1 [Compound D-41] | < 300 |

| Structure (SMILES) | IC50 [nM] |
| --- | --- |
| Cc1cc(C)c(CNC(=O)c2cc(C3=CC(C)(C)NC(C)(C)C3)nc3c2cnn3C2CCN(C)CC2)c(=O)[nH]1 [Compound B-116] | 1000 to 3000 |
| Cc1cc(C)c(CNC(=O)c2cc(-c3cccc(OCCCN(C)C)c3)cc3c2cnn3C2CCCC2)c(=O)[nH]1 [Compound C-11, 1-cyclopentyl-N-((4,6-dimethyl-2-oxo-1,2-dihydropyridin-3-yl)methyl)-6-(3-(3-(dimethylamino)propoxy)phenyl)-1H-indazole-4-carboxamide] | < 300 |
| Cc1cc(C)c(CNC(=O)c2cc(-c3ccc(CN4CCOCC4)nc3)cc3c2cnn3C2CCCC2)c(=O)[nH]1 [Compound C-2, 1-cyclopentyl-N-((4,6-dimethyl-2-oxo-1,2-dihydropyridin-3-yl)methyl)-6-(6-(morpholinomethyl)pyridin-3-yl)-1H-indazole-4-carboxamide] | < 300 |
| Cc1cc(C)c(CNC(=O)c2cc(Br)cc3c2cnn3C2CCN(C(=O)C(C)(C)C)CC2)c(=O)[nH]1 [Compound D-13] | < 300 |
| Cc1cc(C)c(CNC(=O)c2cc(-c3ccc(CN(C)CCCN(C)C)cc3)nc3c2cnn3C(C)C)c(=O)[nH]1 [Compound A-15, N-((4,6-dimethyl-2-oxo-1,2-dihydropyridin-3-yl)methyl)-6-(4-(((3-(dimethylamino)propyl)(methyl)amino)methyl)phenyl)-1-isopropyl-1H-pyrazolo[3,4-b]pyridine-4-carboxamide] | < 300 |
| Cc1cc(C)c(CNC(=O)c2cc(N3CCCC3)nc3c2cnn3C(C)C)c(=O)[nH]1 [Compound B-123] | 3000 to 10000 |
| Cc1ccc(CNC(=O)c2cc(-c3cccc(CN4CCN(C)CC4)c3)nc3c2cnn3C(C)C)c(=O)[nH]1 [Compound A-100] | 10000 to 50000 |
| Cc1cc(C)c(CNC(=O)c2cc(C3=CCN(C(=O)C4CCCN(C)C4)CC3)nc3c2cnn3C(C)C)c(=O)[nH]1 (centres unmarked) [Compound B-32, N-((4,6-dimethyl-2-oxo-1,2-dihydropyridin-3-yl)methyl)-1-isopropyl-6-(1-(1-methylpiperidine-3-carbonyl)-1,2,3,6-tetrahydropyridin-4-yl)-1H-pyrazolo[3,4-b]pyridine-4-carboxamide] | < 300 |
| CCc1c(C)[nH]c(=O)c(CNC(=O)c2cc(C3=CC(C)(C)NC(C)(C)C3)nc3c2cnn3C(C)C)c1C [Compound B-122] | 3000 to 10000 |
| Cc1cc(C)c(CNC(=O)c2cc(-c3ccc(N4CCN(C(=O)OC(C)(C)C)CC4)nc3)nc3c2cnn3C(C)C)c(=O)[nH]1 [Compound A-6, tert-butyl 4-(5-(4-(((4,6-dimethyl-2-oxo-1,2-dihydropyridin-3-yl)methyl)carbamoyl)-1-isopropyl-1H-pyrazolo[3,4-b]pyridin-6-yl)pyridin-2-yl)piperazine-1-carboxylate] | 300 to 1000 |
| Cc1ccc(-n2ncc3c(C(=O)NCc4c(C)cc(C)[nH]c4=O)cc(-c4ccc(N5CCN(C)CC5)nc4)nc32)cc1 [Compound A-65] | 3000 to 10000 |
| CNCCN1CCC(c2cc(C(=O)NCc3c(C)cc(C)[nH]c3=O)c3cnn(C4CCCC4)c3c2)CC1 [Compound D-51] | < 300 |
| CC(C)n1ncc2c(C(=O)NCc3cc4c([nH]c3=O)CCNC4)cc(-c3ccc4c(c3)OCCO4)nc21 [Compound A-71] | 10000 to 50000 |
| Cc1cc(C)c(CNC(=O)c2cc(-c3ccc(CN4CCOCC4)cc3C)cc3c2cnn3C2CCCC2)c(=O)[nH]1 [Compound C-6, 1-cyclopentyl-N-((4,6-dimethyl-2-oxo-1,2-dihydropyridin-3-yl)methyl)-6-(2-methyl-4-(morpholinomethyl)phenyl)-1H-indazole-4-carboxamide] | < 300 |
| Cc1cc(C)c(CNC(=O)c2cc(C3CCN(S(C)(=O)=O)CC3)nc3c2cnn3C(C)C)c(=O)[nH]1 [Compound B-27, N-((4,6-dimethyl-2-oxo-1,2-dihydropyridin-3-yl)methyl)-1-isopropyl-6-(1-(methylsulfonyl)piperidin-4-yl)-1H-pyrazolo[3,4-b]pyridine-4-carboxamide] | 300 to 1000 |
| Cc1cc(C)c(CNC(=O)c2cc(C3CCN(C(=O)[C@H](C)N)CC3)nc3c2cnn3C(C)C)c(=O)[nH]1 [Compound B-105] | 1000 to 3000 |
